Results taken from patent US8334253B2, “Cosmetic and dermatological formulations of MNTF peptides” (Dermacare Neuroscience Institute, priority 2008, dated 2012).
Ends that are not written are not given here.

Key:
[1] = system: gamma interferon-induced NO production in epidermal keratinocytes; experiment: Inhibition of gamma interferon-induced nitric oxide production in keratinocytes (Griess reaction); type: cell-based; settings: positive control, aminoguanidine 10 mg/mL plus gamma interferon
Excerpt: The study method chosen is similar to that published in the reference Tsai et al. (Tsai et al, Inhibition of inflammatory nitric oxide production and epidermis damages by Saccharomycopsis Ferment Filtrate. J Dermatol Sci 2006 June 42 (3): 249-57. Laskin, Multifunctional Role of Nitric Oxide in Inflammation, Trends Endocrinol Metab 1994; 5:377-382. Lyons, Emerging Roiles of Nitric Oxide in Inflammation, Hospital Practice, Jul. 15, 1996: 69-86.)
The objective of the study was to investigate the inhibition effect of Pal-hexapeptide (SEQ ID NO: 2, in palmitylated form) on gamma interferon-induced NO production in epidermal keratinocytes in culture.
Anti-inflammatory effect was observed as a reduction of nitric oxide production in keratinocytes. Keratinocytes were incubated 48 hours with gamma-interferon (300 U/ml) alone (as control) or with gamma-interferon together with different concentrations (0.1 μM, 1 μM, 10 μM, 100 μM and 1000 μM) of Pal-hexapeptide. Gamma interferon plus aminoguanidine (10 mg/mL) was used as positive control. The amount of NO production was detected by Griess reaction. Nitric oxide readily oxides to nitrite in aqueous medium, and this reaction was measured as nitrite accumulation in the medium. […] The optical density of the wells were read using a Tibertek Mutiskan (MCC microplate reader at a wavelength of 540 nm, subtracting the absorbance at a reference wavelength of 620 nm.) A printout of the absorbance values was generated by the plate reader, and data were entered into an EXCEL spreadsheet for analysis. The average absorbance and standard deviations were expressed as percent of control absorbances.

[2] = system: UVA-bleaching of beta-carotene; experiment: UVA bleaching of beta-carotene on forearm skin, Color Index by CHROMAMETER; type: in vivo, human; settings: human forearm
Protocol: In-vivo method for assessing the protective effects of cosmetic products. Bleaching of carotenoids have been used to evaluate the auto-oxidation activity of natural products. The relative efficacy of scavengers of lipid peroxyl free radicals after application to the skin was assessed by measuring the UVA-bleaching of beta-carotene as a function of the energy exposure.
A CHROMAMETER colorimeter (TM, Minolta Model CR-300) was used to measure changes in color by expressing the color of measured surfaces numerically in L*a*b* color space which is a system recommended by the CIE (Commission Internationale de I'Eclairage) for skin color assessment. In this color space, L* is the luminance and gives the relative brightness from total black (L*=0) to total white (L*=100). The a* value represents the balance between the reds (positive values) and the greens (negative values). The b* value represents the balance between the yellows (positive values) and the blues (negative values). The b* value most closely describes the intensity of the orange color of the β-carotene stain and is in direct correlation with the Color Index, I. The CHROMAMETER provides a means by which oxidative damage caused by free radicals and, conversely, the prevention of oxidation by free radical scavengers, can be measured. Free radical oxidation induced by UVA radiation elicits a bleaching and reduction of color of beta-carotene stain. The bleaching and prevention of bleaching by a test material can be measured by the CHROMAMETER. Bleaching is reported as the change in b* versus UVA Irradiation Energy. It can also be expressed in terms of a Color Index, I, defined as: I=[(bn*−bi*)/(b0*−bi*)]×100 where, bn* is the value of b* measured after n J/cm^2 of irradiation of the area treated with the cosmetic formulation and painted with the β-carotene; b0* is the value of b* after application of the beta-carotene but before irradiation; and bi* is the value of b* before application of the beta-carotene. This index compensates for any effects of skin color on bn* and b0*. Bleaching will cause bn* value and I value (as a percentage) to decrease. Prevention of bleaching will result in higher I values or less reduction in I value when exposed to radiation.
The designated forearm of impaneled subjects was cleansed with a 70% isopropyl alcohol prep pad (Medium, Dynarex) and allowed to dry. Test sites were selected on the volar surface of the designated forearm of each subject, with each test site defined by the open, central area of a self-adhesive ring (Professional ProFoot™ Products, P.P.R. Co, Inc.). The adhesive side of the rings were placed directly on the skin. The rings were used to retain the test material and beta-carotene solution as well as to function as a guide for taking measurements with the CHROMAMETER.
Gel formulations (0.1% Pal-hexapeptide) and (0.1% hexapeptide) were applied to the forearm according to a randomized schedule. Additional sites were treated with a beta-carotene control, a positive control (internal control) and an untreated control. Treatment of the test sites were randomized for each subject.
Prior to application of the test materials or beta-carotene, the initial b* parameter was measured using the CHROMAMETER and recorded for all duplicate test sites of the forearm (Baseline). Approximately 2 mg/cm^2 of each material was applied to the designated test site and spread manually with a finger cot to ensure even distribution. Sites designated as untreated, with or without beta-carotene, remained untreated at this time. The test materials and internal control were allowed to incubate with the skin surface for a period of fifteen (15) minutes. After this incubation period, b* measurements were recorded for all sites (Product Baseline).
A solution of beta-carotene in a mixture of capric and caprylic triglycerides was applied to all treated sites. The b* parameter is again measured and recorded (beta-carotene Baseline). […]

[3] = system: cellular peroxide levels in human epidermal keratinocytes; experiment: Cellular peroxide levels in keratinocytes, DCFH-DA dye and flow cytometry, with and without exogenous H2O2; type: cell-based
Protocol: Hydrogen peroxide can induce damages to skin cells. The dermal protective efficacy of Pal-hexapeptide was assessed by measuring basal peroxide levels in the presence and absence of the compound.
Basal peroxide production, generated by normal cellular metabolism, induce gradual development of low levels of peroxide-specific cellular fluorescence.
Extracellular peroxides (e.g., H2O2 added exogenously) can permeate the cell membrane and cause a rapid and dramatic increase in the peroxide-specific fluorescence of the cell. Cellular peroxides levels can be measured by flow cytometry using the peroxide-specific dye, 2′,7′-dichlorofluorescein diacetate (DCFH-DA). DCFH-DA is initially non-fluorescent and is rapidly concentrated within living cells by an enzyme-dependent process. […] The results of the assay indicates if a test compound functions as an oxidant or an anti-oxidant in a cellular system. If the test article functions as an anti-oxidant, this assay can also be used to determine if the test compound can permeate the cell membrane to quench intracellular peroxide or if it can only affect extracellular peroxide levels (Bass et al., 1983, J. Immunol. 130:1910-1917; Bombick et al., 1992, Toxicol. Meth. 2:255-264).
Human primary keratinocytes, generally on the third passage, were seeded in T75 flasks and cultured until 70-80% confluent. A cell suspension was created and these cells were loaded with the dye DCFH-DA. The pre-incubated cells were exposed to dilutions of the Pal-hexapeptide having the amino acid sequence SEQ ID NO: 2 in two triplicate sets per dilution. One triplicate set was incubated with H2O2 (exogenous source of peroxide), and both sets were stained with Propidium Iodide. Cell viability and peroxide production were determined by fluorescence readings on a FACScan flow cytometer. Peroxide value increases or decreases of 25% or more compared to vehicle control values are considered biologically significant.

## N=C(N)NN [AG, aminoguanidine, reference compound]
[1]
  nitric oxide production induced by Gamma-interferon, % of the control: 42%
[1]; listed as positive control
  nitric oxide production induced by Gamma-interferon, % of the control: 25%

## CC1=C(/C=C/C(C)=C/C=C/C(C)=C/C=C/C=C(C)/C=C/C=C(C)/C=C/C2=C(C)CCCC2(C)C)C(C)(C)CCC1 [PC (beta-carotene), beta-carotene]
[2]; UVA energy 0 J/cm^2
  average Color Index Value: 100%
[2]; UVA energy 1 J/cm^2
  average Color Index Value: 36%
[2]; UVA energy 2 J/cm^2
  average Color Index Value: 27%
[2]; UVA energy 3 J/cm^2
  average Color Index Value: 23%
[2]; UVA energy 4 J/cm^2
  average Color Index Value: 16%
[2]; UVA energy 5 J/cm^2
  average Color Index Value: 14%
[2]; UVA energy 6 J/cm^2
  average Color Index Value: 13%

## Cc1c(C)c2c(c(C)c1O)CCC(C)(C(=O)O)O2 (stereo not shown) [Trolox, reference compound]
[3]; positive control, 300 μM, endogenous peroxide
  peroxide level, % of the control, endogenous peroxide assay without exogenous H2O2: 69.79%
[3]; positive control, 300 μM, exogenous H2O2 added
  peroxide level, % of the control, assay with exogenous added peroxide: 24.97%

## FSR [CS2307]
[3]; 0.1 mM, endogenous peroxide
  % Control (no H2O2), peroxide level: 98.7%
[3]; 0.1 mM, exogenous H2O2 added
  % Control (with H2O2), peroxide level: 95.5%
[3]; 1 mM, endogenous peroxide
  % Control (no H2O2), peroxide level: 60.6%
  endogenous peroxide level (as defined by the 25% cutoff), in words: decreased
[3]; 1 mM, exogenous H2O2 added
  % Control (with H2O2), peroxide level: 62.5%
  exogenous peroxide level (as defined by the 25% cutoff), in words: decreased
[3]; 10 mM, endogenous peroxide
  % Control (no H2O2), peroxide level: −8.5%
  endogenous peroxide level (as defined by the 25% cutoff), in words: decreased
[3]; 10 mM, endogenous peroxide, listed as MNTF 3-mer
  % Control (no H2O2), peroxide level: 0%
[3]; 10 mM, exogenous H2O2 added
  % Control (with H2O2), peroxide level: −1.5%
  exogenous peroxide level (as defined by the 25% cutoff), in words: decreased
[3]; 10 mM, exogenous H2O2 added, listed as MNTF 3-mer
  % Control (with H2O2), peroxide level: 0%

## FSRY [CS2308]
[3]; 0.1 mM, endogenous peroxide
  % Control (no H2O2), peroxide level: 98.6%
[3]; 0.1 mM, exogenous H2O2 added
  % Control (with H2O2), peroxide level: 84.5%
[3]; 1 mM, endogenous peroxide
  % Control (no H2O2), peroxide level: 77.2%
[3]; 1 mM, exogenous H2O2 added
  % Control (with H2O2), peroxide level: 54.9%
  exogenous peroxide level (as defined by the 25% cutoff), in words: decreased
[3]; 10 mM, endogenous peroxide
  % Control (no H2O2), peroxide level: 25.2%
  endogenous peroxide level (as defined by the 25% cutoff), in words: decreased
[3]; 10 mM, endogenous peroxide, listed as MNTF 4-mer
  % Control (no H2O2), peroxide level: 0%
[3]; 10 mM, exogenous H2O2 added
  % Control (with H2O2), peroxide level: −5.8%
  exogenous peroxide level (as defined by the 25% cutoff), in words: decreased
[3]; 10 mM, exogenous H2O2 added, listed as MNTF 4-mer
  % Control (with H2O2), peroxide level: 25.2%

## FSRYA [CS2309]
[3]; 0.1 mM, endogenous peroxide
  % Control (no H2O2), peroxide level: 103.3%
[3]; 0.1 mM, exogenous H2O2 added
  % Control (with H2O2), peroxide level: 87.2%
[3]; 1 mM, endogenous peroxide
  % Control (no H2O2), peroxide level: 61.6%
  endogenous peroxide level (as defined by the 25% cutoff), in words: decreased
[3]; 1 mM, exogenous H2O2 added
  % Control (with H2O2), peroxide level: 46.2%
  exogenous peroxide level (as defined by the 25% cutoff), in words: decreased
[3]; 10 mM, endogenous peroxide
  % Control (no H2O2), peroxide level: 3.6%
  endogenous peroxide level (as defined by the 25% cutoff), in words: decreased
[3]; 10 mM, exogenous H2O2 added
  % Control (with H2O2), peroxide level: −5.9%
  exogenous peroxide level (as defined by the 25% cutoff), in words: decreased
[3]; 10 mM, exogenous H2O2 added, listed as MNTF 5-mer
  % Control (with H2O2), peroxide level: 0%

## FSRYAR [GM602, FSRYAR]
[3]; 0.1 mM, endogenous peroxide
  % Control (no H2O2), peroxide level: 94.9%
[3]; 0.1 mM, exogenous H2O2 added
  % Control (with H2O2), peroxide level: 92.9%
[3]; 1 mM, endogenous peroxide
  % Control (no H2O2), peroxide level: 73.6%
[3]; 1 mM, exogenous H2O2 added
  % Control (with H2O2), peroxide level: 56.0%
[3]; 10 mM, endogenous peroxide
  % Control (no H2O2), peroxide level: 25.0%
[3]; 10 mM, exogenous H2O2 added
  % Control (with H2O2), peroxide level: 14.3%
[3]; keratinocytes, Propidium Iodide staining
  Cell viability, expressed as % of non-viable, treated versus not treated cells: about the same

## Pal 3 mer: palmitylated form of the MNTF 3 mer (SEQ ID NO:9) (Phe-Ser-Arg; also: palmitoyl group)
[3]; 0.01 mM, endogenous peroxide
  % Control (no H2O2), peroxide level: 99.4%
[3]; 0.01 mM, exogenous H2O2 added
  % Control (with H2O2), peroxide level: 101.0%
[3]; 0.1 mM, endogenous peroxide
  % Control (no H2O2), peroxide level: 98.7%
[3]; 0.1 mM, exogenous H2O2 added
  % Control (with H2O2), peroxide level: 96.1%
[3]; 1 mM, endogenous peroxide
  % Control (no H2O2), peroxide level: 101.1%
[3]; 1 mM, exogenous H2O2 added
  % Control (with H2O2), peroxide level: 71.9%
  exogenous peroxide level (as defined by the 25% cutoff), in words: decreased

## Pal 4mer: palmitylated form of the MNTF 4 mer (SEQ ID NO:11) (FSRY; also: palmitoyl group)
[3]; 0.01 mM, endogenous peroxide
  % Control (no H2O2), peroxide level: 97.2%
[3]; 0.01 mM, exogenous H2O2 added
  % Control (with H2O2), peroxide level: 102.4%
[3]; 0.1 mM, endogenous peroxide
  % Control (no H2O2), peroxide level: 96.8%
[3]; 0.1 mM, exogenous H2O2 added
  % Control (with H2O2), peroxide level: 96.6%
[3]; 1 mM, endogenous peroxide
  % Control (no H2O2), peroxide level: 81.8%
[3]; 1 mM, exogenous H2O2 added
  % Control (with H2O2), peroxide level: 67.2%
  exogenous peroxide level (as defined by the 25% cutoff), in words: decreased

## Pal 5 mer: palmitylated form of the MNTF 5 mer (SEQ ID NO:17) (FSRYA; also: palmitoyl group)
[3]; 0.01 mM, endogenous peroxide
  % Control (no H2O2), peroxide level: 95.3%
[3]; 0.01 mM, exogenous H2O2 added
  % Control (with H2O2), peroxide level: 98.6%
[3]; 0.1 mM, endogenous peroxide
  % Control (no H2O2), peroxide level: 92.8%
[3]; 0.1 mM, exogenous H2O2 added
  % Control (with H2O2), peroxide level: 96.0%
[3]; 1 mM, endogenous peroxide
  % Control (no H2O2), peroxide level: 83.6%
[3]; 1 mM, exogenous H2O2 added
  % Control (with H2O2), peroxide level: 62.2%
  exogenous peroxide level (as defined by the 25% cutoff), in words: decreased
